Laboratory results: publication PMC8926291 (Chemical Science, 2022)
Starred links: 1 amine or outer side, 2 acyl side, 3 side chain; linkers in the order of their positions; H or OH if unused. Positions of bridges follow the written chain, without caps; N, C: chain ends. Residues, ends and D or L forms follow the SMILES beside them. *: point of attachment. C18 diacid = O=C(O)CCCCCCCCCCCCCCCCC(=O)*; γGlu = O=C(O)[C@H](CCC(=O)[*:2])N[*:1]; AEEA = NCCOCCOCC(=O)O

Experiments:
hGIP-R ECD [1] = target: T1, hGIP-R ECD (Homo sapiens, UniProt P48546); test: single-concentration BLI binding of crude peptides to biotinylated hGIP-R ECD
T1 sequence (P48546 22-138): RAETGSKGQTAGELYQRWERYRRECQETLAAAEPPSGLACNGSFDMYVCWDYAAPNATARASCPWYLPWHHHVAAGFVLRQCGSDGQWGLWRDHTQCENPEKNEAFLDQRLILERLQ

[2] = pharmacokinetic study in rats, i.v. dosing; type: in vivo; settings: male, Sprague-Dawley, rat, plasma, iv, 2 nmol/kg, mean
[3] = in vitro plasma stability in human plasma; settings: 37 °C, over 5 h
hGIP-R ECD [4] = target: T1, hGIP-R ECD; test: multi-concentration BLI binding of purified peptides to hGIP-R ECD
[5] = cited from earlier work

binding to hGIP-R ECD (in words) (hGIP-R ECD [4]) | Molecule | In vitro plasma stability (in words) [3] | also measured
– | CSCC[C@H](NC(C)=O)C(=O)N[C@H]1CSSC[C@@H](C(=O)NCC(=O)N[C@@H](CO)C(=O)NCC(=O)N[C@@H](CO)C(=O)N[C@@H](CC(=O)O)C(=O)N[C@@H](Cc2ccc(O)cc2)C(=O)N[C@@H](CCCCN)C(=O)N[C@@H](CC(=O)O)C(=O)N[C@@H](CC(=O)O)C(=O)N[C@@H](CC(=O)O)C(=O)N[C@@H](CC(=O)O)C(=O)N[C@@H](CCCCN)C(N)=O)NC(=O)[C@H](Cc2ccccc2)NC(=O)[C@@H]2CCCN2C(=O)[C@H](Cc2c[nH]c3ccccc23)NC(=O)[C@H](CC(C)C)NC(=O)[C@H](CC(C)C)NC(=O)[C@H](CO)NC(=O)[C@H](Cc2ccccc2)NC(=O)[C@H](Cc2ccccc2)NC(=O)[C@H](CCCNC(=N)N)NC(=O)[C@H](Cc2ccccc2)NC1=O [B_68] (Ac-MCFRFFSLLWPFCGSGSDYKDDDDK-NH2; disulfide 2-13) | – | binding to hGIP-R ECD (in words) (hGIP-R ECD [1]): did not reveal any binding
– | CSCC[C@H](NC(=O)COCCOCCNC(=O)COCCOCCNC(=O)CC[C@H](NC(=O)CCCCCCCCCCCCCCCCC(=O)O)C(=O)O)C(=O)N[C@H]1CSSC[C@@H](C(=O)NCC(=O)N[C@@H](CO)C(=O)NCC(=O)N[C@@H](CO)C(=O)N[C@@H](CC(=O)O)C(=O)N[C@@H](Cc2ccc(O)cc2)C(=O)N[C@@H](CCCCN)C(=O)N[C@@H](CC(=O)O)C(=O)N[C@@H](CC(=O)O)C(=O)N[C@@H](CC(=O)O)C(=O)N[C@@H](CC(=O)O)C(=O)N[C@@H](CCCCN)C(N)=O)NC(=O)[C@H](Cc2ccccc2)NC(=O)[C@@H]2CCCN2C(=O)[C@H](Cc2c[nH]c3ccccc23)NC(=O)[C@H](CC(C)C)NC(=O)[C@H](CCSC)NC(=O)[C@H](Cc2c[nH]cn2)NC(=O)[C@H](Cc2ccccc2)NC(=O)[C@H](Cc2c[nH]cn2)NC(=O)[C@H]([C@@H](C)O)NC(=O)[C@H](Cc2ccccc2)NC1=O [B_1275.1] ({C18 diacid-γGlu-AEEA-AEEA}-MCFTHFHMLWPFCGSGSDYKDDDDK-NH2; disulfide 2-13) | – | half-life ([2]; t½ (h)): 10.7 h
– | CSCC[C@H](NC(=O)COCCOCCNC(=O)COCCOCCNC(=O)CC[C@H](NC(=O)CCCCCCCCCCCCCCCCC(=O)O)C(=O)O)C(=O)N[C@H]1CSSC[C@@H](C(N)=O)NC(=O)[C@H](Cc2ccccc2)NC(=O)[C@@H]2CCCN2C(=O)[C@H](Cc2c[nH]c3ccccc23)NC(=O)[C@H](CC(C)C)NC(=O)[C@H](CCSC)NC(=O)[C@H](Cc2c[nH]cn2)NC(=O)[C@H](Cc2ccccc2)NC(=O)[C@H](Cc2c[nH]cn2)NC(=O)[C@H]([C@@H](C)O)NC(=O)[C@H](Cc2ccccc2)NC1=O [B_1275.3] ({C18 diacid-γGlu-AEEA-AEEA}-MCFTHFHMLWPFC-NH2; disulfide 2-13) | no decrease in plasma stability | –
– | CC(=O)N[C@@H](C)C(=O)N[C@H]1CSSC[C@@H](C(=O)NCC(=O)N[C@@H](CO)C(=O)NCC(=O)N[C@@H](CO)C(=O)N[C@@H](CC(=O)O)C(=O)N[C@@H](Cc2ccc(O)cc2)C(=O)N[C@@H](CCCCN)C(=O)N[C@@H](CC(=O)O)C(=O)N[C@@H](CC(=O)O)C(=O)N[C@@H](CC(=O)O)C(=O)N[C@@H](CC(=O)O)C(=O)N[C@@H](CCCCN)C(N)=O)NC(=O)[C@H](Cc2ccccc2)NC(=O)[C@@H]2CCCN2C(=O)[C@H](Cc2c[nH]c3ccccc23)NC(=O)[C@H](CC(C)C)NC(=O)[C@H](CC(C)C)NC(=O)[C@H](CC(=O)O)NC(=O)[C@H](Cc2ccccc2)NC(=O)[C@H](Cc2c[nH]cn2)NC(=O)[C@H]([C@@H](C)O)NC(=O)[C@H](Cc2ccccc2)NC1=O [B_1275.4] (Ac-ACFTHFDLLWPFCGSGSDYKDDDDK-NH2; disulfide 2-13) | no decrease in plasma stability | half-life ([2]; t½ (min)): 0.0583 h
– | CC(=O)N[C@@H](C)C(=O)N[C@H]1CSSC[C@@H](C(=O)O)NC(=O)[C@H](Cc2ccccc2)NC(=O)[C@@H]2CCCN2C(=O)[C@H](Cc2c[nH]c3ccccc23)NC(=O)[C@H](CC(C)C)NC(=O)[C@H](CC(C)C)NC(=O)[C@H](CC(=O)O)NC(=O)[C@H](Cc2ccccc2)NC(=O)[C@H](Cc2c[nH]cn2)NC(=O)[C@H]([C@@H](C)O)NC(=O)[C@H](Cc2ccccc2)NC1=O [B_1275.5] (Ac-ACFTHFDLLWPFC-OH; disulfide 2-13) | no decrease in plasma stability | half-life ([2]; t½ (min)): 0.03 h
– | CC(C)C[C@@H]1NC(=O)[C@H](CC(=O)O)NC(=O)[C@H](Cc2ccccc2)NC(=O)[C@H](Cc2c[nH]cn2)NC(=O)[C@H]([C@@H](C)O)NC(=O)[C@H](Cc2ccccc2)NC(=O)[C@@H](NC(=O)[C@H](C)NC(=O)COCCOCCNC(=O)COCCOCCNC(=O)CC[C@H](NC(=O)CCCCCCCCCCCCCCCCC(=O)O)C(=O)O)CSSC[C@@H](C(=O)O)NC(=O)[C@H](Cc2ccccc2)NC(=O)[C@@H]2CCCN2C(=O)[C@H](Cc2c[nH]c3ccccc23)NC(=O)[C@H](CC(C)C)NC1=O [B_1275.6] ({C18 diacid-γGlu-AEEA-AEEA}-ACFTHFDLLWPFC-OH; disulfide 2-13) | no decrease in plasma stability | half-life ([2]; t½ (h)): 4.2 h
did not show any binding | CC(=O)N[C@@H](C)C(=O)N[C@H]1CSSC[C@@H](C(=O)NCC(=O)N[C@@H](CO)C(=O)NCC(=O)N[C@@H](CO)C(=O)N[C@@H](CC(=O)O)C(=O)N[C@@H](Cc2ccc(O)cc2)C(=O)N[C@@H](CCCCN)C(=O)N[C@@H](CC(=O)O)C(=O)N[C@@H](CC(=O)O)C(=O)N[C@@H](CC(=O)O)C(=O)N[C@@H](CC(=O)O)C(=O)N[C@@H](CCCCN)C(N)=O)NC(=O)[C@@H]2CCCN2C(=O)[C@@H]2CCCN2C(=O)[C@H](Cc2c[nH]c3ccccc23)NC(=O)[C@H](CC(C)C)NC(=O)[C@H](CC(C)C)NC(=O)[C@H](Cc2c[nH]cn2)NC(=O)[C@H](Cc2ccccc2)NC(=O)[C@H](Cc2c[nH]cn2)NC(=O)[C@H]([C@@H](C)O)NC(=O)[C@H](Cc2ccccc2)NC1=O [B_1275.10] (Ac-ACFTHFHLLWPPCGSGSDYKDDDDK-NH2; disulfide 2-13) | – | –
None of the linear variants | Ac-MSFIHWDMLWPFSGSGSDYKDDDDK-NH2 [B_5.2] | – | –
None of the linear variants | Ac-MSFQYFHILWPFSGSGSDYKDDDDK-NH2 [B_3.2] | – | –
None of the linear variants | Ac-MSFRFFSLLWPFSGSGSDYKDDDDK-NH2 [B_68.2] | – | –
None of the linear variants | Ac-MSFTHFHMLWPFSGSGSDYKDDDDK-NH2 [B_1275.2] | – | –
– | semaglutide | – | t1/2 in rats [5]: 7 h
